Measurements reported in patent US20050288316A1, “Beta-carbolines as growth hormone secretagogue receptor (GHSR) antagonists” (priority 2003, published 2005).

How the values were obtained:
human GHSR = molecular target: T1, human GHSR (Homo sapiens, UniProt Q92847); assay: Functional FLIPR assay: inhibition of the ghrelin-evoked peak response in CHO cells stably expressing human GHSR (IC50, functional Ki); format: cell-based; conditions: functional Ki calculated from IC50 by Cheng-Prusoff equation, Fluo-4AM, ghrelin at EC70
T1 construct: host or cells: Chinese hamster ovary (CHO) cells
Protocol: Chinese hamster ovary cells (CHO), cell line (ES-410-F) purchased from Euroscreen, stably expressing the human GHSR seeded in 96 well plates are pre-loaded with Fluo-4AM fluorescent dye for 60 min before addition of test compounds (5 μM for primary screen). Fluorescent intensity is recorded using a Fluorometric imaging plate reader (FLIPR 98R 96-well format, Molecular Devices) and inhibition of the peak response evoked by ghrelin (EC70 concentration) is calculated.
Potency (IC50) determinations are performed utilizing the same functional assay as described for primary screening, applying the compounds in the concentration range of 170 pM to 10 μM or 340 pM to 20 μM.
The calculation of the functional Ki values for the inhibitors was performed by use of Activity Base. The Ki value is calculated from IC50 using the Cheng Prushoff equation (with reversible inhibition that follows the Michaelis-Menten equation): […] [Cheng, Y. C.; Prushoff, W. H. Biochem. Pharmacol. 1973, 22, 3099-3108]. […]

T1 sequence (Q92847 whole entry): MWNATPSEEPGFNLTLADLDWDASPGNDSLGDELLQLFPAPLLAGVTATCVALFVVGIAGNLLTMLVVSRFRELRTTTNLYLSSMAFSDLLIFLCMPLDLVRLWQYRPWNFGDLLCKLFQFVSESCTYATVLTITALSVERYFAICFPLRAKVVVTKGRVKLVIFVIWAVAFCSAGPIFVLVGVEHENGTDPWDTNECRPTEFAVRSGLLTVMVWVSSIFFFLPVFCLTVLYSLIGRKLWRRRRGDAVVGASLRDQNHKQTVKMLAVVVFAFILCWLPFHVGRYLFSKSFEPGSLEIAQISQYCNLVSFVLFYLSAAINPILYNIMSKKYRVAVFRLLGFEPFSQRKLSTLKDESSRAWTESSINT

Ki (human GHSR) [nM]	melting point [°C]	SMILES
60	–	COc1ccc2[nH]c3c(c2c1)CCNC31CCN(CCOc2ccccc2)C1 (stereo not drawn) [Example 10, 6-Methoxy-1′-(2-phenoxyethyl)-2,3,4,9-tetrahydrospiro[beta-carboline-1,3′-pyrrolidine]]
–	> 180	COc1ccc2[nH]c3c(c2c1)CCNC31CCNC1 (stereo not drawn) [Comparative Example 1, 6-Methoxy-2,3,4,9-tetrahydrospiro[beta-carboline-1,3′-pyrrolidine]]
572	–	Fc1ccc2c3c([nH]c2c1)C1(CCN(CCOc2ccccc2)C1)NCC3 (stereo not drawn) [Example 11, 7-Fluoro-1′-(2-phenoxyethyl)-2,3,4,9-tetrahydrospiro[beta-carboline-1,3′-pyrrolidine]]
59	–	CCCCNC(=O)N1CCc2c([nH]c3ccc(OC)cc23)C12CCN(CCOc1ccccc1)C2 (stereo not drawn) [Example 30, N-Butyl-6-methoxy-1′-(2-phenoxyethyl)-4,9-dihydrospiro[beta-carboline-1,3′-pyrrolidine]-2(3H)-carboxamide]
